# Measurements reported in patent US20180170983A1, “New Use of Cell-Permeable Peptide Inhibitors of the JNK Signal Transduction Pathway for the Treatment of Mild Cognitive Impairment” (Xigen Inflammation Ltd., priority 2015, published 2018).
# Square brackets hold non-standard residues; d marks the D form. Ends that are not written are not given here.
# Legend:
# hippocampal CA1 neurons = details: in vivo, transient global ischemia; cited from earlier work
# [1] = test system: cultured chick embryonic dorsal root ganglion, sympathetic, ciliary and motor neurons; details: cited from earlier work
# [2] = test system: primary embryonic cultures and differentiated PC12 cells; details: at dosages that inhibit activation of JNKs; after trophic withdrawal and in mice treated with 1-methyl-4-phenyl tetrahydropyridine; cited from earlier work
# βTC-3 cell cultures = experiment: Cellular import of fluorescein-labeled TAT and TAT-IB1(s) peptides; format: cell-based; details: for entry of fluorescein labeled peptide into cells: labeled peptides (1 PM), BSA 1 μM, βTC-3 cells
# Procedure: The ability of the L- and D-enantiomeric forms of TAT and TAT-IB(s) peptides (“TAT-IB peptides”) to enter cells was evaluated. L-TAT, D-TAT, L-TAT-IB1(s), and D-TAT-IB1(s) peptides [SEQ ID NOs: 5, 6, 9 and 12, respectively] were labeled by N-terminal addition of a glycine residue conjugated to fluorescein. Labeled peptides (1 PM) were added to βTC-3 cell cultures, which were maintained as described in Example 3. At predetermined times cells were washed with PBS and fixed for five minutes in ice-cold methanol-acetone (1:1) before being examined under a fluorescence microscope. Fluorescein-labeled BSA (1 μM, 12 moles/mole BSA) was used as a control.
# Little to no signal was present at 48 hours.
# Fluorescent signals from these all-D retro-inverso peptides were still very strong 1 week later, and the signal was only slightly diminished at 2 weeks post treatment.
# JNK = details: JBDs of IB1 and IB2 vs c-Jun or ATF2; cited from earlier work
# βTC-3 cells = experiment: IL-1β induced pancreatic beta-cell death, peptide addition; format: cell-based; details: one single addition of peptide 1 μM, two days of incubation with IL-1β
# Procedure: Inhibition of IL-1β induced pancreatic beta-cell death by the D-TAT-IB1(s) peptide was analyzed. βTC-3 cells were incubated as described above for 30 minutes with one single addition of the indicated peptides (1 μM), then IL-1 (10 ng/ml) was added.
# Apoptotic cells were then counted after two days of incubation with IL-1β by use of Propidium Iodide and Hoechst 33342 nuclear staining. A minimum of 1,000 cells were counted for each experiment. Standard Error of the Means (SEM) are indicated, n=5.
# Long term inhibition of IL-1P induced cell-death by the D-TAT-IB1 peptide was also analyzed. βTC-3 cells were incubated as above for 30 minutes with one single addition of the indicated peptides (1 μM), then […] (10 ng/ml) was added, followed by addition of the cytokine every two days. Apoptotic cells were then counted after 15 days of incubation with IL-1 by use of propidium iodide and Hoechst 33342 nuclear staining. […] A minimum of 1.000 cells were counted for each experiment.
compound,measurement,setting,value
N#CC(c1ccnc(NCCc2cccnc2)n1)c1nc2ccccc2s1 (stereo not shown) [AS601245],protection against the delayed loss of hippocampal CA1 neurons,hippocampal CA1 neurons,provided significant protection
CCSCc1ccc2c(c1)c1c3c(c4c5cc(CSCC)ccc5n5c4c1n2[C@H]1C[C@](O)(C(=O)OC)[C@]5(C)O1)CNC3=O [CEP-1347],long term-survival of neurons,[1],can promote long term-survival
same,neuronal survival,[2],promotes neuronal survival
CC(C)C[C@@H](NC(=O)[C@@H](Cc1ccccc1)NC(=O)[C@H]1CCCN1C(=O)[C@@H](CCC(N)=O)NC(=O)[C@H](NC(=O)[C@H]1CCCN1C(=O)[C@@H](CCCNC(=N)N)NC(=O)[C@@H](CO)NC(=O)[C@@H](CCC(N)=O)NC(=O)[C@H](N)CC(=O)O)C(C)C)C(=O)N[C@H](CC(N)=O)C(=O)N[C@H](CC(C)C)C(=O)N[C@@H](C(=O)N[C@@H](C(=O)N1CCC[C@@H]1C(=O)N[C@H](CCCNC(=N)N)C(=O)N[C@H](CCCCN)C(=O)N1CCC[C@@H]1C(=O)N[C@H](CCCNC(=N)N)C(=O)N1CCC[C@@H]1C(=O)N1CCC[C@@H]1C(=O)N[C@H](CCCNC(=N)N)C(=O)N[C@H](CCCNC(=N)N)C(=O)N[C@H](CCCNC(=N)N)C(=O)N[C@H](CCC(N)=O)C(=O)N[C@H](CCCNC(=N)N)C(=O)N[C@H](CCCNC(=N)N)C(=O)N[C@H](CCCCN)C(=O)N[C@H](CCCCN)C(=O)N[C@H](CCCNC(=N)N)C(=O)NCC(=O)O)[C@H](C)O)[C@H](C)O [XG-102],stability inside the cells,βTC-3 cell cultures,extremely stable inside the cells
GRKKRRQRRR (Description of sequence Peptide L-TAT (see Table 1)),entry of fluorescein labeled peptide into cells,βTC-3 cell cultures,efficiently and rapidly (less than five minutes) entered cells
GRKKRRQRRRPPRPKRPTTLNLFPQVPRSQD [L-TAT-IB1(s)],entry of fluorescein labeled peptide into cells,βTC-3 cell cultures,efficiently and rapidly (less than five minutes) entered cells
IPSPSVEEPHKHRPTTLRLTTLGAQDS (Description of sequence Peptide IB2-long (see Table 1)),efficiency in binding JNK relative to c-Jun or ATF2,JNK,approximately 100 fold
PGTGCGDTYRPKRPTTLNLFPQVPRSQDT (Description of sequence peptide IB1-long (see Table 1)),efficiency in binding JNK relative to c-Jun or ATF2,JNK,approximately 100 fold
RRRQRRKKRG (D-amino acids; Description of sequence Peptide D-TAT (see Table 1); MUTAGEN (1)..(10) all amino acids are D-amino acids),stability inside the cells,βTC-3 cell cultures,extremely stable inside the cells
TDQSRPVQPFLNLTTPRKPRYTDPPRRRQRRKKRG ([dT][dD][dQ][dS][dR][dP][dV][dQ][dP][dF][dL][dN][dL][dT][dT][dP][dR][dK][dP][dR][dY][dT][dD][dP][dP][dR][dR][dR][dQ][dR][dR][dK][dK][dR]G) [D-TAT-IB1],IL-1 induced apoptosis,βTC-3 cells,decreased IL-1 induced apoptosis to a similar extent as L-TAT-IB peptides
